Test results: ChEMBL document CHEMBL1153832, “Identification and characterization of UK-201844, a novel inhibitor that interferes with human immunodeficiency virus type 1 gp160 processing” (Antimicrob Agents Chemother, 2007)
The source made the active and inactive calls. No cut-off for these calls is given here.

What was measured:
[1] = test system: Human immunodeficiency virus 1; assay: Antiviral activity against recombinant HIV1 NL4-3 bearing envelope with S162N, N302Y substitutions infected in human MT2 cells by virus production assay; format: functional, organism-based
[2] = test system: Human immunodeficiency virus 1; assay: Antiviral activity against recombinant HIV1 NL4-3 bearing envelope with G354E substitution infected in human MT2 cells by virus production assay; format: functional, organism-based
[3] = target: Furin (Homo sapiens) (UniProt P09958); assay: Inhibition of human recombinant furin up to 100 uM
Sequence of Furin (Homo sapiens) (P09958 whole entry): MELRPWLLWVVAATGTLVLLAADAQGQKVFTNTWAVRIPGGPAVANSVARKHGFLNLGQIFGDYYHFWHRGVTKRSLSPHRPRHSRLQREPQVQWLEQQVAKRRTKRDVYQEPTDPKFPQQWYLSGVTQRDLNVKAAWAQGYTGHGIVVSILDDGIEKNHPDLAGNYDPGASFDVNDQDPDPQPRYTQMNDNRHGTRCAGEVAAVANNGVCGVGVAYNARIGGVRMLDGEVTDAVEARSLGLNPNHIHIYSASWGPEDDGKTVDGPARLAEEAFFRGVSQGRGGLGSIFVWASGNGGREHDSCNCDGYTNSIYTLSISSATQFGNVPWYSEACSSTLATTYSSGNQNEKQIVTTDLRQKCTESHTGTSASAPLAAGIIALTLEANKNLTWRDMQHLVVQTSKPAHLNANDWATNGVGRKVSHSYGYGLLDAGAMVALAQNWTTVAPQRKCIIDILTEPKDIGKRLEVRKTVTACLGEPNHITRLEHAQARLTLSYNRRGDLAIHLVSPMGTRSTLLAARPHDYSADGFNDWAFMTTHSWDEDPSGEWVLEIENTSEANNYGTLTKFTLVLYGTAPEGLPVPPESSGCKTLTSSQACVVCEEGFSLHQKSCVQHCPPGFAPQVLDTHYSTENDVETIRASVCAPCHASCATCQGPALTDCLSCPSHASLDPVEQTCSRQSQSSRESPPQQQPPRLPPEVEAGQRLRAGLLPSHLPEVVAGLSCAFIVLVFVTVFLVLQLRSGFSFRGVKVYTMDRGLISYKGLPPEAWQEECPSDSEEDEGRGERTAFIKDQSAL

[4] = test system: Human immunodeficiency virus 1; assay: Ratio of EC50 for recombinant HIV1 NL4-3/3BCt chimeric virus to EC50 for parental HIV1 NL4-3 virus; format: functional
[5] = test system: Human immunodeficiency virus 1; assay: Antiviral activity against HIV1 bearing VSV envelope infected in human HeLa CD4 cells coexpressing LTR/beta-Gal gene assessed as reduction in virus-induced beta-galactosidase reporter gene activity after 72 hrs by single-cycle infection assay; format: functional, organism-based; conditions: Human immunodeficiency virus 1, HeLa
[6] = test system: Human immunodeficiency virus 1; assay: Antiviral activity against HIV1 NL4-3 transfected in HEK293 cells assessed as inhibition of viral envelope gp160 processing at 7.5 uM by Western blot; format: functional; conditions: Human immunodeficiency virus 1, NL4-3, HEK293
[7] = test system: Human immunodeficiency virus 1; assay: Ratio of EC50 for recombinant HIV1 NL4-3 bearing envelope with G354E substitution to EC50 for parental HIV1 NL4-3; format: functional
[8] = test system: Human immunodeficiency virus 1; assay: Antiviral activity against HIV1 NL4-3 infected in human PM1 cells assessed as inhibition of viral p24 antigen production after 5 days; format: functional, organism-based; conditions: Human immunodeficiency virus 1, NL4-3, PM1, 120 h
[9] = test system: Human immunodeficiency virus 1; assay: Antiviral activity against HIV1 NL4/3BFL chimeric virus infected in human MT2 cells assessed as inhibition of viral p24 antigen level at 2 uM by Western blot; format: functional; conditions: Human immunodeficiency virus 1, NL4/3BFL
[10] = test system: Human immunodeficiency virus 1; assay: Ratio of EC50 for recombinant HIV1 NL4-3 bearing envelope with S162N, N302Y, G354E, V372E, D474N substitutions to EC50 for parental HIV1 NL4-3; format: functional
[11] = test system: Human immunodeficiency virus 1; assay: Antiviral activity against HIV1 NL4-3 infected in human MT2 cells assessed as inhibition of viral p24 antigen level at 0.5 uM by Western blot; format: functional; conditions: Human immunodeficiency virus 1, NL4-3, MT2
[12] = test system: Human immunodeficiency virus 1; assay: Antiviral activity against recombinant HIV1 NL4-3 bearing envelope with G354E, V372E, D474N substitutions infected in human MT2 cells by virus production assay; format: functional, organism-based
[13] = test system: Human immunodeficiency virus 1; assay: Ratio of EC50 for recombinant HIV1 NL4-3/3B5'Env chimeric virus to EC50 for parental HIV1 NL4-3 virus; format: functional
[14] = test system: Human immunodeficiency virus 1; assay: Ratio of EC50 for recombinant HIV1 NL4-3 bearing envelope with D474N substitution to EC50 for parental HIV1 NL4-3; format: functional
[15] = test system: Human immunodeficiency virus 1; assay: Ratio of EC50 for recombinant HIV1 NL4-3 bearing envelope with G354E, V372E substitutions to EC50 for parental HIV1 NL4-3; format: functional
[16] = Therapeutic index, ratio of CC50 for human MT2 cells to EC50 for HIV1 NL4-3; format: cell-based; conditions: read-out: TI
[17] = Cytotoxicity against human PM1 cells after 6 days by XTT assay; format: cell-based
[18] = test system: Human immunodeficiency virus 1; assay: Antiviral activity against HIV1 NL4-3 transfected in HEK293 cells assessed as inhibition of viral envelope gp160 processing at 0.5 uM by Western blot; format: functional; conditions: Human immunodeficiency virus 1, NL4-3, HEK293
[19] = test system: Human immunodeficiency virus 1; assay: Antiviral activity against HIV1 NL4-3 infected in human MT2 cells assessed as inhibition of viral p24 antigen level at 1.0 uM by Western blot; format: functional; conditions: Human immunodeficiency virus 1, NL4-3, MT2
[20] = test system: Human immunodeficiency virus 1; assay: Inhibition of HIV1 NL4-3 proteins incorporation into virions transfected in HEK293 cells assessed as unprocessed gp160 Env protein at 15 uM by Western blot; format: functional, organism-based
[21] = test system: Human immunodeficiency virus 1; assay: Antiviral activity against recombinant HIV1 NL4/3BCt chimeric virus infected in human MT2 cells assessed as inhibition of virus-induced CPE; format: functional, organism-based; conditions: Human immunodeficiency virus 1, NL4/3BCt
[22] = test system: Human immunodeficiency virus 1; assay: Antiviral activity against HIV1 NL4/3BFL chimeric virus transfected in HEK293 cells assessed as inhibition of viral envelope gp160/gp120 processing at 15 uM by Western blot; format: functional; conditions: Human immunodeficiency virus 1, NL4/3BFL
[23] = test system: Human immunodeficiency virus 1; assay: Antiviral activity against recombinant HIV1 NL4-3 bearing envelope with V372E substitution infected in human MT2 cells by virus production assay; format: functional, organism-based
[24] = test system: Human immunodeficiency virus 1; assay: Antiviral activity against HIV1 NL4-3 transfected in HEK293 cells assessed as inhibition of infectious virus production at 15 uM; format: functional; design: scale not given: the % may be the effect or the level left
[25] = test system: Human immunodeficiency virus 1; assay: Antiviral activity against HIV1 NL4-3 transfected in HEK293 cells assessed as inhibition of viral envelope gp160 processing at 1.0 uM by Western blot; format: functional; conditions: Human immunodeficiency virus 1, NL4-3, HEK293
[26] = test system: Human immunodeficiency virus 1; assay: Antiviral activity against recombinant HIV1 NL4-3 bearing envelope with G354E, V372E substitutions infected in human MT2 cells by virus production assay; format: functional, organism-based
[27] = test system: Human immunodeficiency virus 1; assay: Antiviral activity against HIV1 NL4-3 infected in human MT2 cells assessed as inhibition of viral p24 antigen level at 15 uM by Western blot; format: functional; conditions: Human immunodeficiency virus 1, NL4-3, MT2
[28] = Therapeutic index, ratio of CC50 for human PM1 cells to EC50 for HIV1 NL4-3; format: cell-based; conditions: read-out: TI
[29] = test system: Human immunodeficiency virus 1; assay: Ratio of EC50 for recombinant HIV1 NL4-3/3BNt chimeric virus to EC50 for parental HIV1 NL4-3 virus; format: functional
[30] = test system: Human immunodeficiency virus 1; assay: Antiviral activity against recombinant HIV1 NL4/3B5'Env chimeric virus infected in human MT2 cells assessed as inhibition of virus-induced CPE; format: functional, organism-based; conditions: Human immunodeficiency virus 1, NL4/3B5'Env
[31] = test system: Human immunodeficiency virus 1; assay: Antiviral activity against HIV1 bearing HIV1 NL4-3 envelope assessed as reduction in viral envelope-mediated membrane fusion by cell-based fusion assay; format: functional, organism-based

## NC(=O)C(c1ccccc1)(c1ccccc1)[C@H]1CCCN(CCc2ccc3c(c2)CCO3)C1
[1]
  EC50: 8.6 µM
[2]
  EC50: 0.9 µM
[3]
  Activity: inactive
[4]
  fold change (FC): 4
[5]
  EC50: > 32 µM
[6]
  inhibition at 7.5 µM: 99%
[7]
  fold change (FC): 0.9
[8]
  EC50: 2.7 µM
[9]
  inhibition at 2 µM: 2%
[10]
  fold change (FC): >31
[11]
  inhibition at 0.5 µM: 12%
[12]
  EC50: > 32 µM
[13]
  fold change (FC): >25
[14]
  fold change (FC): 6
[15]
  fold change (FC): 2.1
[16]
  selectivity ratio: 41
[17]
  CC50 at 144 h: 47 µM
[18]
  inhibition at 0.5 µM: 12%
[19]
  inhibition at 1 µM: 44%
[20]
  Activity: Active
[21]
  EC50: 5.3 µM
[22]
  inhibition at 15 µM: 2%
[23]
  EC50: 0.9 µM
[24]
  Activity: 100%
[25]
  inhibition at 1 µM: 44%
[26]
  EC50: 2.2 µM
[27]
  inhibition at 15 µM: 100%
[28]
  selectivity ratio: 17
[29]
  fold change (FC): 1
[30]
  EC50: > 32 µM
[31]
  Activity: inactive
